Earlier results in US10863741B2, “Herbicidal compositions” (HOMS, LLC, priority 2015, dated 2020).

Test system: male rats
Conditions: chronic exposure

C=C(C)[C@H]1CC=C(C)CC1 [d-limonene]
Tumor incidence: significant incidence of renal tubular tumors
